test system: α-SMA expression in MRC5 cells; assay: inhibition of α-SMA expression in MRC5 cells, image screening method; type: cell-based; conditions: Homo sapiens; MRC5, compound 10 μM, TGF-β1 5 ng/mL, 72 hours, relative to TGF-β1 alone; read-out: Inhibitory activity (α-SMA expression inhibition)
Method: The ability of the compounds according to the present invention to inhibit the expression of α-SMA, which is a biomarker for pulmonary fibrosis, was evaluated by an image screening method. MRC5 cells were treated with the compound (10 μM) or DMSO under the condition of TGF-31 (5 ng/mL). 72 hours later, the cells were fixed with a 4% formaldehyde solution, treated with a 0.1% Triton-x100 solution, and treated with a 1% BSA solution to mask non-specific binding caused by antibodies. Anti-α-SMA-FITC (Sigma Aldrich) and anti-GAPDH (Cell Signaling Technology) were used as primary antibodies, and anti-mouse-TRITC was used as a secondary antibody. Imaging and analysis of the results were performed using Cytation5_Gen5_Version 3.12.08 (Bio Tek). Relative to the α-SMA expression level when TGF-31 was treated alone, the α-SMA expression level when both the compound and TGF-31 were treated was calculated as the ability of α-SMA expression inhibition of the corresponding compound.

Compound	inhibition at 10 µM
CC(C)CN1CCC(CNC(=O)N2CCN(c3ccc(F)cc3)c3cc(F)ccc32)CC1 [Compound 35, 6-fluoro-4-(4-fluorophenyl)-N-((1-isobutylpiperidin-4-yl)methyl)-3,4-dihydroquinoxaline-1(2H)-carboxamide]	≥ 70%
CC(C)N1CCC(CNC(=O)N2CCN(c3ccc(F)cc3)c3cc(F)ccc32)CC1 [Compound 36, 6-fluoro-4-(4-fluorophenyl)-N-((1-isopropylpiperidin-4-yl)methyl)-3,4-dihydroquinoxaline-1(2H)-carboxamide]	50 to 70%
O=C(NCc1c[nH]cn1)N1CCN(c2ccc(F)cc2)c2cc(F)ccc21 [Compound 37, N-((1H-imidazol-4-)methyl)-6-fluoro-4-(4-fluorophenyl)-3,4-dihydroquinoxaline-1(2H)-carboxamide]	30 to 50%
COC1CCN(C(=O)N2CCN(c3ccc(F)cc3)c3cc(F)ccc32)C1 (stereo not shown) [Compound 40, (6-fluoro-4-(4-fluorophenyl)-3,4-dihydroquinoxalin-1(2H)-yl)(3-methoxypyrrolidin-1-yl)methanone]	10 to 30%
O=C(NC1CNC1)N1CCN(c2ccc(F)cc2)c2cc(F)ccc21 [Compound 41, N-(azetidin-3-yl)-6-fluoro-4-(4-fluorophenyl)-3,4-dihydroquinoxaline-1(2H)-carboxamide]	30 to 50%
CC(C)CN1CC(NC(=O)N2CCN(c3ccc(F)cc3)c3cc(F)ccc32)C1 [Compound 43, 6-fluoro-4-(4-fluorophenyl)-N-(1-isobutylazetidin-3-yl)-3,4-dihydroquinoxaline-1(2H)-carboxamide]	≥ 70%
CN1CC(CNC(=O)N2CCN(c3ccc(F)cc3)c3cc(F)ccc32)C1 [Compound 45, 6-fluoro-4-(4-fluorophenyl)-N-((1-methylazetidin-3-yl)methyl)-3,4-dihydroquinoxaline-1(2H)-carboxamide]	50 to 70%
CC(C)N1CC(CNC(=O)N2CCN(c3ccc(F)cc3)c3cc(F)ccc32)C1 [Compound 46, 6-fluoro-4-(4-fluorophenyl)-N-((1-isopropylazetidin-3-yl)methyl)-3,4-dihydroquinoxaline-1(2H)-carboxamide]	30 to 50%
CC(C)CN1CC(CNC(=O)N2CCN(c3ccc(F)cc3)c3cc(F)ccc32)C1 [Compound 47, 6-fluoro-4-(4-fluorophenyl)-N-((1-isobutylazetidin-3-yl)methyl)-3,4-dihydroquinoxaline-1(2H)-carboxamide]	50 to 70%
O=C(NCC1CCOC1)N1CCN(c2ccc(F)cc2)c2cc(F)ccc21 (stereo not shown) [Compound 48, 6-fluoro-4-(4-fluorophenyl)-N-((tetrahydrofuran-3-yl)methyl)-3,4-dihydroquinoxaline-1(2H)-carboxamide]	10 to 30%
O=C(N[C@H]1CCNC1)N1CCN(c2ccc(F)cc2)c2ccccc21 [Compound 49, (S)-4-(4-fluorophenyl)-N-(pyrrolidin-3-yl)-3,4-dihydroquinoxaline-1(2H)-carboxamide]	10 to 30%
O=C(NC1CCNCC1)N1CCN(c2ccc(F)cc2)c2ccccc21 [Compound 50, 4-(4-fluorophenyl)-N-(piperidin-4-yl)-3,4-dihydroquinoxaline-1(2H)-carboxamide]	30 to 50%
O=C(NCC1CCOCC1)N1CCN(c2ccc(F)cc2)c2ccccc21 [Compound 52, 4-(4-fluorophenyl)-N-((tetrahydro-2H-pyran-4-yl)methyl)-3,4-dihydroquinoxaline-1(2H)-carboxamide]	10 to 30%
O=C(NC[C@H]1CCNC1)N1CCN(c2ccc(F)cc2)c2ccccc21 [Compound 53, (S)-4-(4-fluorophenyl)-N-(pyrrolidin-3-ylmethyl)-3,4-dihydroquinoxaline-1(2H)-carboxamide]	10 to 30%
CN1CC[C@H](CNC(=O)N2CCN(c3ccc(F)cc3)c3ccccc32)C1 [Compound 54, (R)-4-(4-fluorophenyl)-N-((1-methylpyrrolidin-3-yl)methyl)-3,4-dihydroquinoxaline-1(2H)-carboxamide]	30 to 50%
CC(C)N1CC[C@H](CNC(=O)N2CCN(c3ccc(F)cc3)c3ccccc32)C1 [Compound 55, (R)-4-(4-fluorophenyl)-N-((1-isopropylpyrrolidin-3-yl)methyl)-3,4-dihydroquinoxaline-1(2H)-carboxamide]	30 to 50%
CC(C)CN1CC[C@H](CNC(=O)N2CCN(c3ccc(F)cc3)c3ccccc32)C1 [Compound 56, (R)-4-(4-fluorophenyl)-N-((1-isobutylpyrrolidin-3-yl)methyl)-3,4-dihydroquinoxaline-1(2H)-carboxamide]	30 to 50%
O=C(NC[C@H]1CCCN1)N1CCN(c2ccc(F)cc2)c2ccccc21 [Compound 57, (R)-4-(4-fluorophenyl)-N-(pyrrolidin-2-ylmethyl)-3,4-dihydroquinoxaline-1(2H)-carboxamide]	30 to 50%
CN1CC[C@@H](CNC(=O)N2CCN(c3ccc(F)cc3)c3ccccc32)C1 [Compound 58, (S)-4-(4-fluorophenyl)-N-((1-methylpyrrolidin-3-yl)methyl)-3,4-dihydroquinoxaline-1(2H)-carboxamide]	30 to 50%
CC(C)N1CC[C@@H](CNC(=O)N2CCN(c3ccc(F)cc3)c3ccccc32)C1 [Compound 59, (S)-4-(4-fluorophenyl)-N-((1-isopropylpyrrolidin-3-yl)methyl)-3,4-dihydroquinoxaline-1(2H)-carboxamide]	30 to 50%
CC(C)CN1CC[C@@H](CNC(=O)N2CCN(c3ccc(F)cc3)c3ccccc32)C1 [Compound 60, (S)-4-(4-fluorophenyl)-N-((1-isobutylpyrrolidin-3-yl)methyl)-3,4-dihydroquinoxaline-1(2H)-carboxamide]	50 to 70%
CC(C)CN1CC(CNC(=O)N2CCN(c3ccc(F)cc3)c3ccccc32)C1 [Compound 61, 4-(4-fluorophenyl)-N-((1-isobutylazetidin-3-yl)methyl)-3,4-dihydroquinoxaline-1(2H)-carboxamide]	50 to 70%
O=C(NCC1CCNCC1)N1CCN(c2ccc(F)cc2)c2ccccc21 [Compound 62, 4-(4-fluorophenyl)-N-(piperidin-4-ylmethyl)-3,4-dihydroquinoxaline-1(2H)-carboxamide]	30 to 50%
CC(C)N1CCC(CNC(=O)N2CCN(c3ccc(F)cc3)c3ccccc32)CC1 [Compound 63, 4-(4-fluorophenyl)-N-((1-isopropylpiperidin-4-yl)methyl)-3,4-dihydroquinoxaline-1(2H)-carboxamide]	30 to 50%
CC(C)CN1CCC(CNC(=O)N2CCN(c3ccc(F)cc3)c3ccccc32)CC1 [Compound 64, 4-(4-fluorophenyl)-N-((1-isobutylpiperidin-4-yl)methyl)-3,4-dihydroquinoxaline-1(2H)-carboxamide]	≥ 70%
O=C(N[C@@H]1CCNC1)N1CCN(c2ccccc2)c2cc(F)ccc21 [Compound 65, (R)-6-fluoro-4-phenyl-N-(pyrrolidin-3-yl)-3,4-dihydroquinoxaline-1(2H)-carboxamide]	30 to 50%
O=C(N1CCCCC1)N1CCN(c2ccccc2Cl)c2ccccc21 [Compound 66, (4-(2-chlorophenyl)-3,4-dihydroquinoxalin-1(2H)-yl)(piperidin-1-yl)methanone]	50 to 70%
O=C(N1CCCC1)N1CCN(c2ccccc2Cl)c2ccccc21 [Compound 67]	30 to 50%

Source: US20260265189A1, “NOVEL COMPOUND, AND PHARMACEUTICAL COMPOSITION COMPRISING SAME AS ACTIVE INGREDIENT” (SAPIENSBIO INC., priority 2022, published 2026)
